From patent US11725005B2, “Compositions and methods for inhibiting kinases” (Inhibikase Therapeutics, Inc., priority 2015, dated 2023)

How the values were obtained:
Cos 7 cells = test: Cell cytotoxicity CC50 and Therapeutic Index (CC50:EC50); conditions: drug titration between 2 nM and 20 μM

SMILES | Percent inhibition PDGFRa (PDGFRa) | Cell cytotoxicity: no toxicity up to (Cos 7 cells)
Cc1cc(-c2cncc(-c3ccnc(Nc4cc(NC(=O)c5ccc(CN6CCN(C)CC6)cc5)ccc4C)n3)c2)sn1 [Compound 8190] | 100 | > 20 µM
Cc1ccc(NC(=O)c2ccc(CN3CCN(C)CC3)cc2)cc1Nc1nccc(-c2cncc(-c3oncc3C)c2)n1 [Compound 809] | – | > 20 µM
Cc1cnc(-c2cncc(-c3ccnc(Nc4cc(NC(=O)c5ccc(CN6CCN(C)CC6)cc5)ccc4C)n3)c2)s1 [Compound 8280] | 100 | > 20 µM
Cc1ccc(NC(=O)c2ccc(CN3CCN(C)CC3)cc2)cc1Nc1nccc(-c2cncc(-c3nccs3)c2)n1 [Compound 8270] | – | > 20 µM
Cc1ccc(NC(=O)c2ccc(CN3CCN(C)CC3)cc2)cc1Nc1nccc(-c2cncc(-c3nncs3)c2)n1 [Compound 8250] | 100 | > 20 µM
Cc1ccc(NC(=O)c2ccc(CN3CCN(C)CC3)cc2)cc1Nc1nccc(-c2cncc(-c3ccn(C)n3)c2)n1 [Compound 832] | 100 | > 20 µM
Cc1ccnc(-c2cncc(-c3ccnc(Nc4cc(NC(=O)c5ccc(CN6CCN(C)CC6)cc5)ccc4C)n3)c2)c1 [Compound 830] | 100 | > 20 µM
Cc1csc(-c2cncc(-c3ccnc(Nc4cc(NC(=O)c5ccc(CN6CCN(C)CC6)cc5)ccc4C)n3)c2)n1 [Compound 8290] | 100 | –
